{
  "source": "paper PMC8505397",
  "about": "“Development of peptides targeting receptor binding site of the envelope glycoprotein to contain the West Nile virus infection” (Scientific Reports, 2021)",
  "key": {"[1]": {"molecular_target": "T1, interaction between rDIII and ~ 15 kDa receptor of hBMECs (West Nile virus, UniProt P06935)", "T1 construct": "rDIII – recombinant domain III; made in house; host or cells: E. coli M15", "T1 sequence (P06935 584-692 limits assumed)": "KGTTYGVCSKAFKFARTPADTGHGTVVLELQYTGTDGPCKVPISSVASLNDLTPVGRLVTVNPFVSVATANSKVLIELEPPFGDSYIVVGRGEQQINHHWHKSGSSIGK", "test": "Blocking of interaction between rDIII and proteins of hBMECs by peptides (Western blot)", "type": "binding, West Nile virus / human", "conditions": "2.5 µg (0.19 nM) rDIII pre-incubated with tenfold molar excess (1.9 nM) of peptide", "method": "First, concentration-dependent ELISA and Western blot were performed to get the minimum concentration of rDIII required to show its interaction with hBMECs proteins. Details are presented in Supplementary Method S12 and Supplementary Method S13. Subsequently, the ability of 7-mer and 12-mer peptides to block the interaction between rDIII and proteins of hBMECs was tested. A tenfold molar excess of peptides was incubated with rDIII for 1 h at room temperature. Such pre-incubated rDIII was subsequently used in the assays. Details of both methods are described in Supplementary Method S12 and Supplementary Method S13. […]\nBlocking of interaction between rDIII and proteins of hBMECs by peptides (Western blot).\nTwo hundred micrograms of proteins extracted from hBMECs were separated on 2-well PAGE […]\ngel (12% polyacrylamide gel) and transferred on 0.45 μm nitrocellulose membrane (Amersham Protran; GE Healthcare) for 1 h at 30 V. Details of LDS-PAGE are described in Supplementary Methods S7. The membrane was cut horizontally to obtain proteins of molecular weight between ~10 kDa to ~25 kDa. Subsequently, this membrane was sliced vertically to obtain 0.3 cm strips, which were then used in Western blot (Supplementary Fig.\nThe NC strips with transblotted hBMECs proteins were first incubated with rDIII at various concentrations to find out the minimal concentration of rDIII required to detect the interaction with hBMECs proteins. Non-specific binding sites were blocked with 1% BSA in 0.05% TBST (pH 7.2) for 1 h at room temperature and constant shaking followed by a washing step for 5 min with 0.05% TBST. The NC strips were incubated with rDIII at different concentrations (5 µg, 2.5 µg, 2 µg, 1 µg, 500 ng) diluted in 1 mL of 0.05% TBST for 3 h at room temperature and constant shaking. After 3 washings with 0.05% TBST, strips were incubated with HisProbe-HRP conjugate (1:5,000 dilution in 0.1% BSA in 0.05% TBST; Thermo Fisher Scientific) for 30 min at room temperature. Six washings, each of 5 min were performed before incubating the strips in SuperSignal chemiluminescence substrate (Thermo Fisher Scientific). The signal was captured on the C-DiGit Blot Scanner (Odyssey CLx, LI-COR Biosciences). For negative control, rDIII was excluded from the above-mentioned protocol.\nTo block the interaction, the NC strips were blocked as described above.\nSimultaneously, 2.5 µg (0.19 nM) of rDIII were pre-incubated with 2.75 µg of each peptide (10-fold molar excess; 1.9 nM) in TBS for 1 h at room temperature. Further on, strips were incubated with pre-incubated rDIII for 3 h at room temperature with constant shaking. After 3 washings with 0.05% TBST, strips were incubated with HisProbe-HRP conjugate as described above. […]"}, "[2]": {"tested_on": "WNV virus like particles (VLP) that possess C, M, and E proteins", "conditions": "for luciferase luminescence, original data (single wells, duplicates): Avg.VC 555022 / Avg.CC 1551.33 (plate 1), 522383 / 1614.33 (plate 2)"}},
  "note": "Values joined by “and” are separate entries in the source; they are usually repeats but may differ in a detail not shown here. Equal values may be shown once. Read-outs that look alike come from different tables or passages of the source.",
  "data": [
    {"smiles": "CC[C@H](C)[C@@H]1NC(=O)[C@@H](NC(=O)[C@H](C)N)CSSC[C@@H](C(=O)NCC(=O)NCC(=O)NCC(=O)N[C@@H](CO)C(=O)O)NC(=O)[C@H](C)NC(=O)[C@H](CCCNC(=N)N)NC(=O)[C@H]([C@@H](C)O)NC(=O)[C@H](CO)NC(=O)[C@H](CO)NC(=O)[C@H](Cc2c[nH]cn2)NC1=O", "note": "[CP4, CIHSSTRAC]", "values": [
      {"measurement": "inhibition of the interaction between rDIII and ~ 15 kDa hBMECs receptor (Western blot)", "setting": "[1]", "result": "inhibition of the interaction was confirmed"},
      {"measurement": "EC50", "setting": "[2]; 48 h", "result": 17, "unit": "nM"},
      {"measurement": "EC50 (neutralization of VLP) as concentration", "setting": "[2]; 48 h", "result": 0.1194, "unit": "µg/mL"},
      {"measurement": "luciferase luminescence, original data (single wells, duplicates)", "setting": "[2]; dilution 90", "result": "125654 and 100462"},
      {"measurement": "Avg. inhibition of VLP infection", "setting": "[2]; dilution of peptide 30, 666 nanograms of peptide / well", "result": 95, "unit": "%"},
      {"measurement": "Avg. inhibition of VLP infection", "setting": "[2]; dilution of peptide 90, 222 nanograms of peptide / well", "result": 80, "unit": "%"},
      {"measurement": "Avg. inhibition of VLP infection", "setting": "[2]; dilution of peptide 270, 74 nanograms of peptide / well", "result": 74, "unit": "%"},
      {"measurement": "Avg. inhibition of VLP infection", "setting": "[2]; dilution of peptide 810, 24.7 nanograms of peptide / well", "result": 57, "unit": "%"},
      {"measurement": "Avg. inhibition of VLP infection", "setting": "[2]; dilution of peptide 2430, 8.2 nanograms of peptide / well", "result": 33, "unit": "%"},
      {"measurement": "Avg. inhibition of VLP infection", "setting": "[2]; dilution of peptide 7290, 2.7 nanograms of peptide / well", "result": 20, "unit": "%"},
      {"measurement": "luciferase luminescence, original data (single wells, duplicates)", "setting": "[2]; listed as B, dilution 30", "result": "31234 and 31350"},
      {"measurement": "luciferase luminescence, original data (single wells, duplicates)", "setting": "[2]; listed as D, dilution 270", "result": "151785 and 142766"},
      {"measurement": "luciferase luminescence, original data (single wells, duplicates)", "setting": "[2]; listed as E, dilution 810", "result": "243092 and 236564"},
      {"measurement": "luciferase luminescence, original data (single wells, duplicates)", "setting": "[2]; listed as F, dilution 2430", "result": "368265 and 376779"},
      {"measurement": "luciferase luminescence, original data (single wells, duplicates)", "setting": "[2]; listed as G, dilution 7290", "result": "424174 and 466082"},
      {"measurement": "half maximal effective concentration in nanograms/ml", "setting": "[2]; sigmoidal 4PL interpolation from EC50 dilution", "result": 119.48, "unit": "nanograms/ml"},
      {"measurement": "half maximal effective concentration in nanograms/well (150 ul)", "setting": "[2]; well volume 150 ul, sigmoidal 4PL interpolation from EC50 dilution", "result": 17.94, "unit": "nanograms/well"}
    ]}
  ]
}
